Measured values: ChEMBL document CHEMBL1201862, “PubChem BioAssay data set” (2004)
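Five concentrations, 48 hours, 96-well plates. Here, GI50 denotes the concentration required for 50% inhibition of growth.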 Calls of active or inactive are those of the source. No stated cut-off is given here; in the data, active = GI50 up to about 1.1 µM and inactive = higher.

How the values were obtained:
Experiment in all cases: NCI tumour cell line growth inhibition, 48 h
U-251 = system: U-251
786-0 = system: 786-0
MDA-MB-231 = system: MDA-MB-231
Malme-3M = system: Malme-3M
MOLT-4 = system: MOLT-4
A549 = system: A549
CAKI-1 = system: CAKI-1
RPMI-8226 = system: RPMI-8226
MDA-N = system: MDA-N
SNB-19 = system: SNB-19
CCRF-CEM = system: CCRF-CEM
KM12 = system: KM12
MDA-MB-435 = system: MDA-MB-435
NCI/ADR-RES = system: NCI/ADR-RES
NCI-H226 = system: NCI-H226
BT-549 = system: BT-549
SK-MEL-5 = system: SK-MEL-5
HCC 2998 = system: HCC 2998
Hs-578T = system: Hs-578T
HOP-92 = system: HOP-92

Measured: GI50

CC(C)(C)OC(=O)NC1CCCCC1NC(=O)C(=O)NC1CCCCC1NC(=O)OC(C)(C)C (stereo not given)
inactive: U-251 25.9 µM | 786-0 34.7 µM | MDA-MB-231 27.2 µM | Malme-3M > 100 µM | MOLT-4 > 100 µM | A549 > 100 µM | CAKI-1 43 µM | RPMI-8226 > 100 µM | MDA-N > 100 µM | SNB-19 28.4 µM | CCRF-CEM > 100 µM | KM12 > 100 µM | MDA-MB-435 > 100 µM | NCI/ADR-RES > 100 µM | NCI-H226 > 100 µM | BT-549 53.5 µM | SK-MEL-5 > 100 µM | HCC 2998 > 100 µM | Hs-578T 16.9 µM | HOP-92 13.5 µM

CCOC(=O)NN(C(=O)OCC)C(C(=O)c1ccccc1)N(NC(=O)OCC)C(=O)OCC
inactive: U-251 > 100 µM | 786-0 > 100 µM | MDA-MB-231 > 100 µM | Malme-3M > 100 µM | MOLT-4 > 100 µM | A549 > 100 µM | CAKI-1 > 100 µM | RPMI-8226 > 100 µM | MDA-N > 100 µM | SNB-19 > 100 µM | CCRF-CEM > 100 µM | KM12 > 100 µM | MDA-MB-435 > 100 µM | NCI/ADR-RES > 100 µM | NCI-H226 > 100 µM | BT-549 > 100 µM | SK-MEL-5 > 100 µM | HCC 2998 > 100 µM | Hs-578T > 100 µM | HOP-92 > 100 µM

O=C1C=CC(=O)C1(Br)Br
inactive: U-251 12.3 µM | 786-0 9.18 µM | MDA-MB-231 8.22 µM | Malme-3M 20 µM | MOLT-4 14.7 µM | A549 13.8 µM | CAKI-1 5.11 µM | RPMI-8226 6.64 µM | MDA-N 11.5 µM | SNB-19 17.1 µM | CCRF-CEM 7.55 µM | KM12 13.1 µM | MDA-MB-435 13.4 µM | NCI/ADR-RES 20.7 µM | NCI-H226 19 µM | BT-549 11.3 µM | SK-MEL-5 16.9 µM | HCC 2998 16.2 µM | Hs-578T 17.9 µM | HOP-92 16.3 µM

CCCC1(N)CC(OC)OC(C)C1O (stereo not given)
inactive: U-251 > 100 µM | 786-0 > 100 µM | MDA-MB-231 > 100 µM | Malme-3M > 100 µM | MOLT-4 > 100 µM | A549 > 100 µM | CAKI-1 > 100 µM | RPMI-8226 > 100 µM | MDA-N > 100 µM | SNB-19 > 100 µM | CCRF-CEM > 100 µM | KM12 > 100 µM | MDA-MB-435 > 100 µM | NCI/ADR-RES > 100 µM | NCI-H226 > 100 µM | BT-549 > 100 µM | SK-MEL-5 > 100 µM | HCC 2998 > 100 µM | Hs-578T > 100 µM | HOP-92 > 100 µM

CS(=O)(=O)OCCCCOS(C)(=O)=O [BUSULFAN]
inactive: U-251 234 µM | 786-0 228 µM | MDA-MB-231 > 1000 µM | Malme-3M 242 µM | MOLT-4 124 µM | A549 208 µM | CAKI-1 161 µM | RPMI-8226 237 µM | MDA-N 209 µM | SNB-19 222 µM | CCRF-CEM 145 µM | KM12 > 250 µM | MDA-MB-435 > 1000 µM | NCI/ADR-RES 217 µM | NCI-H226 237 µM | BT-549 > 1000 µM | SK-MEL-5 232 µM | HCC 2998 183 µM | Hs-578T > 250 µM | HOP-92 198 µM
